The results in this text go back to US20240109930A1, “TRIAZOLYL-METHYL SUBSTITUTED ALPHA-D-GALACTOPYRANOSIDE DERIVATIVES” (Idorsia Pharmaceuticals Ltd, priority 2021, published 2024).

The target of one test is human Gal-1 (hGal-1) (Homo sapiens, UniProt P09382, C131S/C17S/C43S/C61S/C89S). The test can be described thus: Competitive binding assay: biotinylated hGal-1 binding to microplate-adsorbed asialofetuin (ASF). The conditions noted are these: IC50 values from several measurements given as geomean. A digest of the protocol:
(§1)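 Biotinylated hGal-3 or hGal-1 (preferably cysteine-free Cys→Ser mutant), 300–1000 ng/mL, competes with compound for ASF-coated wells for 3 h at 4 °C. Bound lectin detected with streptavidin-peroxidase (80 ng/mL, 1 h, 4 °C) and ABTS by absorbance; IC50 reported as geomean of several runs.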

In another test the target is human Gal-3 (hGal-3) (Homo sapiens (Human), UniProt P17931). The test can be described thus: Competitive binding assay: biotinylated hGal-3 binding to microplate-adsorbed asialofetuin (ASF). Conditions: IC50 values from several measurements given as geomean. The method, boiled down:
as §1

Molecules are shown by their SMILES.

Chain of human Gal-3 (hGal-3) (P17931 whole entry): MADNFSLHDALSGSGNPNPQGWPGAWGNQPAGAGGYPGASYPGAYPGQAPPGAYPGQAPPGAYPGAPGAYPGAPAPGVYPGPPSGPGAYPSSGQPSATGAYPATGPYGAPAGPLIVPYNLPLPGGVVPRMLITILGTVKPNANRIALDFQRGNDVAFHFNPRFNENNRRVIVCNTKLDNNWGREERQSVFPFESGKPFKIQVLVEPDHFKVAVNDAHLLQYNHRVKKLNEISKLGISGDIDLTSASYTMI

What is called IC50 is the midpoint of a concentration-inhibition curve. Lower therefore signals greater potency in that assay. On to `CO[C@@H]1[C@@H](n2cc(-c3ccc(Cl)c(F)c3F)nn2)[C@@H](O)[C@@H](CO)O[C@@H]1Cc1cn(C2(CO)CC2)nn1` [Ex 2.1.4.], for which the figures for the IC50 at human Gal-1 (hGal-1) and on human Gal-3 (hGal-3) were 3.05 µM and 0.04 µM, respectively.

On to `CO[C@@H]1[C@@H](n2cc(-c3ccc(Cl)c(F)c3F)nn2)[C@@H](O)[C@@H](CO)O[C@@H]1Cc1cn(C2(CF)CC2)nn1` [Ex 2.1.46.], for which the IC50 on human Gal-1 (hGal-1) was found to be 1.07 µM; at human Gal-3 (hGal-3), 0.03 µM.

Take `CO[C@@H]1[C@@H](n2cc(-c3ccc(F)c(F)c3F)nn2)[C@@H](O)[C@@H](CO)O[C@@H]1Cc1cn(C2(CO)CCC2)nn1` [Ex 3.1.11.]: the IC50 is 0.89 µM at human Gal-1 (hGal-1) and 0.04 µM on human Gal-3 (hGal-3).

With `CO[C@@H]1[C@@H](n2cc(-c3ccc(C)c(F)c3F)nn2)[C@@H](O)[C@@H](CO)O[C@@H]1Cc1cn([C@]2(C)C[C@@H](O)C2)nn1` [Ex 1.1.27.], the half-inhibitory concentration (IC50) stood at 1.41 µM at human Gal-1 (hGal-1) and 0.03 µM on human Gal-3 (hGal-3).

Consider `CO[C@@H]1[C@@H](n2cc(-c3ccc(C#N)c(F)c3F)nn2)[C@@H](O)[C@@H](CO)O[C@@H]1Cc1cn(C2(C(F)F)COC2)nn1` [Ex 5.1.53., 4-(1-((2R,3R,4S,5R,6R)-2-((1-(3-(Difluoromethyl)oxetan-3-yl)-1H-1,2,3-triazol-4-yl)methyl)-5-hydroxy-6-(hydroxymethyl)-3-methoxytetrahydro-2H-pyran-4-yl)-1H-1,2,3-triazol-4-yl)-2,3-difluorobenzonitrile], for which the values for the IC50 on human Gal-1 (hGal-1) and on human Gal-3 (hGal-3) were 1.35 µM and 0.06 µM, respectively.

For `CO[C@@H]1[C@@H](n2cc(-c3ccc(Cl)c(F)c3F)nn2)[C@@H](O)[C@@H](CO)O[C@@H]1Cc1cn([C@@H]2CCCC[C@H]2F)nn1` [Example 2.1.81.C, (2R,3R,4S,5R,6R)-4-(4-(4-chloro-2,3-difluorophenyl)-1H-1,2,3-triazol-1-yl)-6-((1-((1R,2R)-2-fluorocyclohexyl)-1H-1,2,3-triazol-4-yl)methyl)-2-(hydroxymethyl)-5-methoxytetrahydro-2H-pyran-3-ol], the IC50 on human Gal-1 (hGal-1) is 2.92 µM; at human Gal-3 (hGal-3), 0.06 µM.

As for `CO[C@@H]1[C@@H](n2cc(-c3ccc(Cl)c(F)c3F)nn2)[C@@H](O)[C@@H](CO)O[C@@H]1Cn1cc(C2(C)CC2)nn1` [Ex 2.2.23.], the IC50 was found to be 1.71 µM on human Gal-1 (hGal-1) and 0.06 µM at human Gal-3 (hGal-3).

Regarding `CO[C@@H]1[C@@H](n2cc(-c3ccc(C)c(F)c3F)nn2)[C@@H](O)[C@@H](CO)O[C@@H]1Cn1cc(C2(CO)CC2)nn1` [Ex 1.2.4.], the IC50 at human Gal-1 (hGal-1) was found to be 2.46 µM; on human Gal-3 (hGal-3) it was 0.04 µM.

For `CO[C@@H]1[C@@H](n2cc(-c3ccc(Cl)c(F)c3F)nn2)[C@@H](O)[C@@H](CO)O[C@@H]1Cc1cn(C2CCOCC2(F)F)nn1` (single isomer, unassigned) [Example 2.1.89.B], the IC50 on human Gal-1 (hGal-1) amounted to 0.87 µM; at human Gal-3 (hGal-3) it was 0.02 µM.

For the compound `CO[C@@H]1[C@@H](n2cc(-c3ccc(Br)c(F)c3F)nn2)[C@@H](O)[C@@H](CO)O[C@@H]1Cn1cc(C2CCCC2)nn1` [Ex 4.2.32.], the results for the IC50 at human Gal-1 (hGal-1) and at human Gal-3 (hGal-3) were 2.68 µM and 0.06 µM, respectively.

For `CO[C@@H]1[C@@H](n2cc(-c3ccc(Br)c(F)c3F)nn2)[C@@H](O)[C@@H](CO)O[C@@H]1Cn1cc(C2(C)CC2)nn1` [Ex 4.2.23.], the IC50 came to 2.48 µM at human Gal-1 (hGal-1) and 0.05 µM on human Gal-3 (hGal-3).

As to `CO[C@@H]1[C@@H](n2cc(-c3ccc(Cl)c(F)c3F)nn2)[C@@H](O)[C@@H](CO)O[C@@H]1Cc1cn([C@H]2CCCC2(F)F)nn1` [Example 2.1.64.B, (2R,3R,4S,5R,6R)-4-(4-(4-chloro-2,3-difluorophenyl)-1H-1,2,3-triazol-1-yl)-6-((1-((S)-2,2-difluorocyclopentyl)-1H-1,2,3-triazol-4-yl)methyl)-2-(hydroxymethyl)-5-methoxytetrahydro-2H-pyran-3-ol], the IC50 at human Gal-1 (hGal-1) was determined as 2.34 µM; at human Gal-3 (hGal-3), 0.03 µM.

With `CO[C@@H]1[C@@H](n2cc(-c3ccc(Cl)c(F)c3F)nn2)[C@@H](O)[C@@H](CO)O[C@@H]1Cc1cn([C@H]2CCOC[C@H]2F)nn1` [Example 2.1.66.B, (2R,3R,4S,5R,6R)-4-(4-(4-chloro-2,3-difluorophenyl)-1H-1,2,3-triazol-1-yl)-6-((1-((3S,4S)-3-fluorotetrahydro-2H-pyran-4-yl)-1H-1,2,3-triazol-4-yl)methyl)-2-(hydroxymethyl)-5-methoxytetrahydro-2H-pyran-3-ol], the figures for the IC50 at human Gal-1 (hGal-1) and at human Gal-3 (hGal-3) were 2.9 µM and 0.04 µM, respectively.

Regarding `CO[C@@H]1[C@@H](n2cc(-c3ccc(Cl)c(F)c3F)nn2)[C@@H](O)[C@@H](CO)O[C@@H]1Cc1cn([C@@H]2COC[C@@H]2F)nn1` (single isomer, unassigned) [Example 2.1.74.A, (2R,3R,4S,5R,6R)-4-(4-(4-chloro-2,3-difluorophenyl)-1H-1,2,3-triazol-1-yl)-6-((1-((3R*,4R*)-4-fluorotetrahydrofuran-3-yl)-1H-1,2,3-triazol-4-yl)methyl)-2-(hydroxymethyl)-5-methoxytetrahydro-2H-pyran-3-ol], the figures for the IC50 on human Gal-1 (hGal-1) and on human Gal-3 (hGal-3) were 0.45 µM and 0.01 µM, respectively.

`CCC(C)(CC)n1cc(C[C@H]2O[C@H](CO)[C@H](O)[C@H](n3cc(-c4ccc(Cl)c(F)c4F)nn3)[C@H]2OC)nn1` [Ex 2.1.50.]: the IC50 was found to be 1.6 µM at human Gal-1 (hGal-1) and 0.07 µM at human Gal-3 (hGal-3).

As for `CO[C@@H]1[C@@H](n2cc(-c3ccc(Cl)c(F)c3F)nn2)[C@@H](O)[C@@H](CO)O[C@@H]1Cc1cn([C@H]2CCOC[C@@H]2F)nn1` [Example 2.1.66.D, (2R,3R,4S,5R,6R)-4-(4-(4-chloro-2,3-difluorophenyl)-1H-1,2,3-triazol-1-yl)-6-((1-((3R,4S)-3-fluorotetrahydro-2H-pyran-4-yl)-1H-1,2,3-triazol-4-yl)methyl)-2-(hydroxymethyl)-5-methoxytetrahydro-2H-pyran-3-ol], the values for the IC50 at human Gal-1 (hGal-1) and at human Gal-3 (hGal-3) were 0.78 µM and 0.01 µM, respectively.

For `CO[C@@H]1[C@@H](n2cc(-c3ccc(C)c(F)c3F)nn2)[C@@H](O)[C@@H](CO)O[C@@H]1Cc1cn(C2[C@H]3CCC[C@@H]23)nn1` (some centres unmarked) [Ex 1.1.20.], the values for the IC50 on human Gal-1 (hGal-1) and on human Gal-3 (hGal-3) were 3.44 µM and 0.05 µM, respectively.

Consider `CO[C@@H]1[C@@H](n2cc(-c3ccc(Cl)c(F)c3F)nn2)[C@@H](O)[C@@H](CO)O[C@@H]1Cc1cn([C@@H]2COC[C@H]2F)nn1` (single isomer, unassigned) [Example 2.1.74.C, (2R,3R,4S,5R,6R)-4-(4-(4-chloro-2,3-difluorophenyl)-1H-1,2,3-triazol-1-yl)-6-((1-((3R*,4S*)-4-fluorotetrahydrofuran-3-yl)-1H-1,2,3-triazol-4-yl)methyl)-2-(hydroxymethyl)-5-methoxytetrahydro-2H-pyran-3-ol], for which the half-inhibitory concentration (IC50) on human Gal-1 (hGal-1) is 3.94 µM; on human Gal-3 (hGal-3), 0.06 µM.

For the compound `CO[C@@H]1[C@@H](n2cc(-c3ccc(C)c(F)c3F)nn2)[C@@H](O)[C@@H](CO)O[C@@H]1Cc1cn(C2(C)CC2)nn1` [Ex 1.1.23.], the IC50 amounted to 1.06 µM on human Gal-1 (hGal-1) and 0.02 µM at human Gal-3 (hGal-3).

Consider `CO[C@@H]1[C@@H](n2cc(-c3ccc(Br)c(F)c3F)nn2)[C@@H](O)[C@@H](CO)O[C@@H]1Cn1cc(C23CC(C2)C3)nn1` [Ex 4.2.12.], for which the IC50 is 3.31 µM at human Gal-1 (hGal-1) and 0.09 µM at human Gal-3 (hGal-3).

Regarding `CO[C@@H]1[C@@H](n2cc(-c3ccc(F)c(F)c3F)nn2)[C@@H](O)[C@@H](CO)O[C@@H]1Cc1cn(C2(CO)CCCC2)nn1` [Ex 3.1.5.], the results for the IC50 at human Gal-1 (hGal-1) and on human Gal-3 (hGal-3) were 0.6 µM and 0.06 µM, respectively.

As for `CO[C@@H]1[C@@H](n2cc(-c3ccc(F)c(F)c3F)nn2)[C@@H](O)[C@@H](CO)O[C@@H]1Cc1cn(C(C)(C)C(F)F)nn1` [Ex 3.1.28., (2R,3R,4S,5R,6R)-6-((1-(1,1-difluoro-2-methylpropan-2-yl)-1H-1,2,3-triazol-4-yl)methyl)-2-(hydroxymethyl)-5-methoxy-4-(4-(2,3,4-trifluorophenyl)-1H-1,2,3-triazol-1-yl)tetrahydro-2H-pyran-3-ol], the IC50 on human Gal-1 (hGal-1) worked out at 0.29 µM; on human Gal-3 (hGal-3) it was 0.03 µM.

As to `CO[C@@H]1[C@@H](n2cc(-c3ccc(F)c(F)c3F)nn2)[C@@H](O)[C@@H](CO)O[C@@H]1Cc1cn(C2(CF)COC2)nn1` [Ex 3.1.52.], the IC50 on human Gal-1 (hGal-1) stood at 0.24 µM; at human Gal-3 (hGal-3), 0.03 µM.

`CO[C@@H]1[C@@H](n2cc(-c3ccc(Cl)c(F)c3F)nn2)[C@@H](O)[C@@H](CO)O[C@@H]1Cc1cn(C23CC(C(F)(F)F)(C2)C3)nn1` [Ex 2.1.24.]: the IC50 was 6.7 µM at human Gal-1 (hGal-1) and 0.08 µM at human Gal-3 (hGal-3).

Turning to `CO[C@@H]1[C@@H](n2cc(-c3ccc(Cl)c(F)c3F)nn2)[C@@H](O)[C@@H](CO)O[C@@H]1Cc1cn(C2(C)CC2)nn1` [Ex 2.1.23.], the half-maximal inhibitory concentration (IC50) at human Gal-1 (hGal-1) was 1.09 µM; at human Gal-3 (hGal-3) it was 0.02 µM.

For the compound `CO[C@@H]1[C@@H](n2cc(-c3ccc(Br)c(F)c3F)nn2)[C@@H](O)[C@@H](CO)O[C@@H]1Cc1cn([C@H]2CCC[C@@H]2F)nn1` (relative stereo) [Example 4.1.79.CD, (2R,3R,4S,5R,6R)-4-(4-(4-bromo-2,3-difluorophenyl)-1H-1,2,3-triazol-1-yl)-6-((1-((1S*,2S*)-2-fluorocyclopentyl)-1H-1,2,3-triazol-4-yl)methyl)-2-(hydroxymethyl)-5-methoxytetrahydro-2H-pyran-3-ol], the IC50 at human Gal-1 (hGal-1) came out at 4.96 µM; at human Gal-3 (hGal-3) it was 0.07 µM.

Take `CO[C@@H]1[C@@H](n2cc(-c3ccc(Cl)c(F)c3F)nn2)[C@@H](O)[C@@H](CO)O[C@@H]1Cc1cn([C@@H]2COC[C@H]2F)nn1` (single isomer, unassigned) [Example 2.1.74.D, (2R,3R,4S,5R,6R)-4-(4-(4-chloro-2,3-difluorophenyl)-1H-1,2,3-triazol-1-yl)-6-((1-((3R*,4S*)-4-fluorotetrahydrofuran-3-yl)-1H-1,2,3-triazol-4-yl)methyl)-2-(hydroxymethyl)-5-methoxytetrahydro-2H-pyran-3-ol]: the figures for the IC50 at human Gal-1 (hGal-1) and at human Gal-3 (hGal-3) were 3.54 µM and 0.07 µM, respectively.

Consider `CO[C@@H]1[C@@H](n2cc(-c3ccc(F)c(F)c3F)nn2)[C@@H](O)[C@@H](CO)O[C@@H]1Cc1cn(C2(C)CCC2)nn1` [Ex 3.1.13.], for which the IC50 on human Gal-1 (hGal-1) was found to be 0.29 µM; on human Gal-3 (hGal-3) it was 0.03 µM.
